# Assay results published in patent publication US20090074815A1, “Immunomodulator Compounds as Vaccine Enhancers” (SCICLONE PHARMACEUTICALS, INC., priority 2005, published 2009).
# What was measured:
# [1] = tested on: IL-2 production by OvA-stimulated splenocytes; test: OvA-stimulated production of IL-2 by splenocytes of OvA-immunized mice
# Method: (§1) The OvA was administered subcutaneously to the crest in a volume of 200 μl. Mice were immunized on day 1 with OvA in complete Freund's adjuvant (CFA; Sigma) and on day 15 with the antigen in incomplete Freund's adjuvant (IFA; Sigma). The immune response was analyzed on day 29. Mice were also immunized with 10 μg/mouse of OvA using Alum as an adjuvant.
# (§2) Thymuses and spleens from mice of each treatment group were pooled, and then minced with scissors. The minced tissues were suspended in sterile PBS to form cell suspensions, filtered through a double gauze layer and centrifuged. Cells were washed twice with PBS, re-suspended in RPMI-1640 (Sigma) with 2.0 mM of L-glutamine, 50 μM of mercaptoethanol, and 10 μg/ml of gentamycin (complete medium); and cell counts were made. (The splenocyte suspension was washed with a 0.86% solution of NH4Cl to pre-lyse erthrocytes.)
# Assessment of Mitogen- and Antigen-Induced Production of Cytokines: Thymic cells (1×10^6/well) in complete medium with 2% FCS were stimulated with ConA (0, 1, and 2 μg/ml). Splenocytes (1×10^6/well) in complete medium with 5% FCS were stimulated with ConA (0, 1, and 5 μg/ml) and with OvA (0-100 μg/ml). […] Supernatants from OvA-stimulated cultures were collected after 72 hours. Supernatants from both cultures were frozen, and kept at 20° C. Concentrations of IL-2, IL-4, IL-10, IL-12R40 and IFNγ in the supernatants were determined by solid-phase EIA with EIA Expansion Kits, available from BD Biosciences (formerly Pharmingen), in accordance with the manufacturer's instructions.
# [2] = tested on: IL-4 production by OvA-stimulated splenocytes; test: OvA-stimulated production of IL-4 by splenocytes of OvA-immunized mice
# Method: as §1, §2
# Assessment of Mitogen- and Antigen-Induced Production of Cytokines: Thymic cells (1×10^6/well) in complete medium with 2% FCS were stimulated with ConA (0, 1, and 2 μg/ml). […] Concentrations of IL-2, IL-4, IL-10, IL-12R40 and IFNγ in the supernatants were determined by solid-phase EIA with EIA Expansion Kits, available from BD Biosciences (formerly Pharmingen), in accordance with the manufacturer's instructions.
# [3] = OvA/Alum, 1.0 μg/kg i/p, OvA 1 μg/ml
# [4] = OvA/Alum, 1.0 μg/kg i/p, OvA 10 μg/ml
# [5] = OvA/Alum, 1.0 μg/kg i/p, OvA 25 μg/ml
# [6] = OvA/Alum, 1.0 μg/kg i/p, OvA 100 μg/ml
# [7] = OvA/FA, 0.1 μg/kg i/p, OvA 1 μg/ml
# [8] = OvA/FA, 0.1 μg/kg i/p, OvA 10 μg/ml
# [9] = OvA/FA, 0.1 μg/kg i/p, OvA 25 μg/ml
# [10] = OvA/FA, 0.1 μg/kg i/p, OvA 100 μg/ml
# [11] = OvA/FA, 1.0 μg/kg i/p, OvA 1 μg/ml
# [12] = OvA/FA, 1.0 μg/kg i/p, OvA 10 μg/ml
# [13] = OvA/FA, 1.0 μg/kg i/p, OvA 25 μg/ml
# [14] = OvA/FA, 1.0 μg/kg i/p, OvA 100 μg/ml
smiles,measurement,setting,value
"N[C@H](CCC(=O)N[C@@H](Cc1c[nH]c2ccccc12)C(=O)O)C(=O)O [SCV-07, γ-D-glutamyl-L-tryptophan]",Production of IL-2 by splenocytes,"[1]; OvA/Alum, 0.1 μg/kg per os, OvA 100 μg/ml",90.8 pg/mL
same,Production of IL-2 by splenocytes,"[1]; OvA/Alum, 1.0 μg/kg i/p, OvA 0 μg/ml",113.4 pg/mL
same,Production of IL-2 by splenocytes,[1]; [3],173.7 pg/mL
same,"Production of IL-2 by splenocytes, % (% of control)",[1]; [3],153.2%
same,Production of IL-2 by splenocytes,[1]; [4],167.9 pg/mL
same,"Production of IL-2 by splenocytes, % (% of control)",[1]; [4],148.1%
same,Production of IL-2 by splenocytes,[1]; [5],353.8 pg/mL
same,"Production of IL-2 by splenocytes, % (% of control)",[1]; [5],312.0%
same,Production of IL-2 by splenocytes,[1]; [6],205.8 pg/mL
same,"Production of IL-2 by splenocytes, % (% of control)",[1]; [6],181.5%
same,Production of IL-2 by splenocytes,"[1]; OvA/Alum, 1.0 μg/kg per os, OvA 0 μg/ml",160.9 pg/mL
same,Production of IL-2 by splenocytes,"[1]; OvA/Alum, 1.0 μg/kg per os, OvA 1 μg/ml",92.8 pg/mL
same,Production of IL-2 by splenocytes,"[1]; OvA/Alum, 1.0 μg/kg per os, OvA 10 μg/ml",181.9 pg/mL
same,Production of IL-2 by splenocytes,"[1]; OvA/Alum, 1.0 μg/kg per os, OvA 25 μg/ml",121.3 pg/mL
same,Production of IL-2 by splenocytes,"[1]; OvA/Alum, 1.0 μg/kg per os, OvA 100 μg/ml",120.2 pg/mL
same,Production of IL-2 by splenocytes,"[1]; OvA/Alum, 10.0 μg/kg per os, OvA 0 μg/ml",289.4 pg/mL
same,Production of IL-2 by splenocytes,"[1]; OvA/Alum, 10.0 μg/kg per os, OvA 1 μg/ml",551.9 pg/mL
same,Production of IL-2 by splenocytes,"[1]; OvA/Alum, 10.0 μg/kg per os, OvA 10 μg/ml",252.5 pg/mL
same,Production of IL-2 by splenocytes,"[1]; OvA/Alum, 10.0 μg/kg per os, OvA 25 μg/ml",218.7 pg/mL
same,Production of IL-2 by splenocytes,"[1]; OvA/Alum, 10.0 μg/kg per os, OvA 100 μg/ml",300.8 pg/mL
same,Production of IL-2 by splenocytes,"[1]; OvA/FA, 0.1 μg/kg i/p, OvA 0 μg/ml",78.4 pg/mL
same,Production of IL-2 by splenocytes,[1]; [7],10.2 pg/mL
same,"Production of IL-2 by splenocytes, % (% of control)",[1]; [7],13.0%
same,Production of IL-2 by splenocytes,[1]; [8],72.7 pg/mL
same,"Production of IL-2 by splenocytes, % (% of control)",[1]; [8],92.7%
same,Production of IL-2 by splenocytes,[1]; [9],85.8 pg/mL
same,"Production of IL-2 by splenocytes, % (% of control)",[1]; [9],109.4%
same,Production of IL-2 by splenocytes,[1]; [10],95.5 pg/mL
same,"Production of IL-2 by splenocytes, % (% of control)",[1]; [10],121.8%
same,Production of IL-2 by splenocytes,"[1]; OvA/FA, 0.1 μg/kg per os, OvA 0 μg/ml",211.8 pg/mL
same,Production of IL-2 by splenocytes,"[1]; OvA/FA, 0.1 μg/kg per os, OvA 1 μg/ml",68.7 pg/mL
same,Production of IL-2 by splenocytes,"[1]; OvA/FA, 0.1 μg/kg per os, OvA 10 μg/ml",92.9 pg/mL
same,Production of IL-2 by splenocytes,"[1]; OvA/FA, 0.1 μg/kg per os, OvA 25 μg/ml",252.5 pg/mL
same,Production of IL-2 by splenocytes,"[1]; OvA/FA, 0.1 μg/kg per os, OvA 100 μg/ml",94.8 pg/mL
same,Production of IL-2 by splenocytes,"[1]; OvA/FA, 1.0 μg/kg i/p, OvA 0 μg/ml",147.7 pg/mL
same,Production of IL-2 by splenocytes,[1]; [11],116.5 pg/mL
same,"Production of IL-2 by splenocytes, % (% of control)",[1]; [11],78.9%
same,Production of IL-2 by splenocytes,[1]; [12],317.3 pg/mL
same,"Production of IL-2 by splenocytes, % (% of control)",[1]; [12],214.8%
same,Production of IL-2 by splenocytes,[1]; [13],363.1 pg/mL
same,"Production of IL-2 by splenocytes, % (% of control)",[1]; [13],245.8%
same,Production of IL-2 by splenocytes,[1]; [14],564.4 pg/mL
same,"Production of IL-2 by splenocytes, % (% of control)",[1]; [14],382.1%
same,Production of IL-2 by splenocytes,"[1]; OvA/FA, 1.0 μg/kg per os, OvA 0 μg/ml",122.4 pg/mL
same,Production of IL-2 by splenocytes,"[1]; OvA/FA, 1.0 μg/kg per os, OvA 1 μg/ml",82.7 pg/mL
same,Production of IL-2 by splenocytes,"[1]; OvA/FA, 1.0 μg/kg per os, OvA 10 μg/ml",304.2 pg/mL
same,Production of IL-2 by splenocytes,"[1]; OvA/FA, 1.0 μg/kg per os, OvA 25 μg/ml",152.9 pg/mL
same,Production of IL-2 by splenocytes,"[1]; OvA/FA, 1.0 μg/kg per os, OvA 100 μg/ml",282.8 pg/mL
same,Production of IL-2 by splenocytes,"[1]; OvA/FA, 10.0 μg/kg per os, OvA 0 μg/ml",163 pg/mL
same,Production of IL-2 by splenocytes,"[1]; OvA/FA, 10.0 μg/kg per os, OvA 1 μg/ml",80.2 pg/mL
same,Production of IL-2 by splenocytes,"[1]; OvA/FA, 10.0 μg/kg per os, OvA 10 μg/ml",305.4 pg/mL
same,Production of IL-2 by splenocytes,"[1]; OvA/FA, 10.0 μg/kg per os, OvA 25 μg/ml",287.2 pg/mL
same,Production of IL-2 by splenocytes,"[1]; OvA/FA, 10.0 μg/kg per os, OvA 100 μg/ml",478.2 pg/mL
same,levels of IL-4 production in supernatants of OvA-stimulated splenocytes,"[2]; OvA/Alum, all animal groups",below the sensitivity of the test system
same,levels of IL-4 in supernatants of OvA-stimulated splenocytes,"[2]; OvA/FA, all animals, below the sensitivity of the test-system",< 6 pg/mL
